From ChEMBL document CHEMBL4152379, “Discovery of Pyrrolidine Sulfonamides as Selective and Orally Bioavailable Antagonists of Transient Receptor Potential Vanilloid-4 (TRPV4)” (J Med Chem, 2018)

Tests used:
Rattus norvegicus = species: Rattus norvegicus; assay: Unbound clearance in Sprague-Dawley rat; assay type: ADME, organism-based; settings: in vivo
[1] = molecular target: Transient receptor potential cation channel subfamily V member 1 (Homo sapiens, UniProt Q8NER1); assay: Inhibition of TRPV1 (unknown origin)
Transient receptor potential cation channel subfamily V member 1, sequence (Q8NER1 whole entry): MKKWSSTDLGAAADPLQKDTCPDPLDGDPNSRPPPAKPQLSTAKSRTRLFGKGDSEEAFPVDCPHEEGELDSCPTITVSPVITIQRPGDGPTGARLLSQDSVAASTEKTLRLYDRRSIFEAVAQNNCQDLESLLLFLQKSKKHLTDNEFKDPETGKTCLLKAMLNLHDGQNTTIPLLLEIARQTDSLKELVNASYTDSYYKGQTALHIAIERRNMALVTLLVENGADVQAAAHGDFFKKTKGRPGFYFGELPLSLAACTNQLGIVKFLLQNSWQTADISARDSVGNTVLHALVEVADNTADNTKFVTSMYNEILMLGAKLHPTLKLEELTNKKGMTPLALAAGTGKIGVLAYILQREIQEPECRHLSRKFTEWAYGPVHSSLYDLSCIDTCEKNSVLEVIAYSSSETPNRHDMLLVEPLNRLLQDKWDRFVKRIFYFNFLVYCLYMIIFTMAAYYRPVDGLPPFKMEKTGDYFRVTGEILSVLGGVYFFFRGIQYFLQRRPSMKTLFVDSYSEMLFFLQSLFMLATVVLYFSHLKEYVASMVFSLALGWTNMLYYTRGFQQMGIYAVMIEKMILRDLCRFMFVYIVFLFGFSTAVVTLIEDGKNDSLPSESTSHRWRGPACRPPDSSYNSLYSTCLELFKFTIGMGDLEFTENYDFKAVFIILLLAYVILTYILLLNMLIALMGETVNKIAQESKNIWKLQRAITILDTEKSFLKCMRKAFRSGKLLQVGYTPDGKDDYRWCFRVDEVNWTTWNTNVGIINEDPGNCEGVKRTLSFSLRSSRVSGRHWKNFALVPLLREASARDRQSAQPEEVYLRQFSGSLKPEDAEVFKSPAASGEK

[2] = molecular target: Transient receptor potential cation channel subfamily M member 8 (Homo sapiens, UniProt Q7Z2W7); assay: Inhibition of TRPM8 (unknown origin)
Transient receptor potential cation channel subfamily M member 8, sequence (Q7Z2W7 whole entry): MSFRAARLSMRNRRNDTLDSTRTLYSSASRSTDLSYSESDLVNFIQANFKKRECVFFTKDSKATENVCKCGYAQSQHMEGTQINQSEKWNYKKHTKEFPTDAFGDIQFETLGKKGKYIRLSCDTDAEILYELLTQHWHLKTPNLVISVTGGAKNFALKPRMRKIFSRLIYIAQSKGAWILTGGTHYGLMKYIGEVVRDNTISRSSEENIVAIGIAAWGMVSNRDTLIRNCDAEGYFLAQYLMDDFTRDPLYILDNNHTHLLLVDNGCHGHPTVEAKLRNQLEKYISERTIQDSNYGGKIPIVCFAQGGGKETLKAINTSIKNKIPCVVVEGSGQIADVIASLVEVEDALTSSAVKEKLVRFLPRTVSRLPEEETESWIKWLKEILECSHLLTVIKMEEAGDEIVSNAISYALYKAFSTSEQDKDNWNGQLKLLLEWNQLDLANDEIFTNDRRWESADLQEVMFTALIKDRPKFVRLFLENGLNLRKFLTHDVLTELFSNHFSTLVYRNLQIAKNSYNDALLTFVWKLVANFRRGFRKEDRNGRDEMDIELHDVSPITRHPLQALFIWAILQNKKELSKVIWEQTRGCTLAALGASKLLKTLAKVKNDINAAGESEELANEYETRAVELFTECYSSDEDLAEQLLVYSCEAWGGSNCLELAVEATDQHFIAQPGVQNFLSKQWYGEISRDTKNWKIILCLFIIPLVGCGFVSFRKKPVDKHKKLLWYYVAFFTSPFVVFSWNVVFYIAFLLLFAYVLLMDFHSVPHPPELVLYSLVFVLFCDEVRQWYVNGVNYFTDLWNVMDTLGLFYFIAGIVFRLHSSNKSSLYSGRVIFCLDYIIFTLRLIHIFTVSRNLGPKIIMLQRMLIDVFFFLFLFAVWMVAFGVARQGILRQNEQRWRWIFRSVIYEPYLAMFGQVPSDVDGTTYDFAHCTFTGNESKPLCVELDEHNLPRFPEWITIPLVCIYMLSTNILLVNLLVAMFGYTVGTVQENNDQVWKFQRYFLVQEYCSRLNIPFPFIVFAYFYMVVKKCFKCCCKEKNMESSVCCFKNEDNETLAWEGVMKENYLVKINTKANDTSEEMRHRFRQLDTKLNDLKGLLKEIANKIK

[3] = molecular target: T1, Short transient receptor potential channel 4 (Homo sapiens, UniProt Q9UBN4); assay: Inhibition of TRPC4 (unknown origin)
T1 sequence (Q9UBN4 whole entry): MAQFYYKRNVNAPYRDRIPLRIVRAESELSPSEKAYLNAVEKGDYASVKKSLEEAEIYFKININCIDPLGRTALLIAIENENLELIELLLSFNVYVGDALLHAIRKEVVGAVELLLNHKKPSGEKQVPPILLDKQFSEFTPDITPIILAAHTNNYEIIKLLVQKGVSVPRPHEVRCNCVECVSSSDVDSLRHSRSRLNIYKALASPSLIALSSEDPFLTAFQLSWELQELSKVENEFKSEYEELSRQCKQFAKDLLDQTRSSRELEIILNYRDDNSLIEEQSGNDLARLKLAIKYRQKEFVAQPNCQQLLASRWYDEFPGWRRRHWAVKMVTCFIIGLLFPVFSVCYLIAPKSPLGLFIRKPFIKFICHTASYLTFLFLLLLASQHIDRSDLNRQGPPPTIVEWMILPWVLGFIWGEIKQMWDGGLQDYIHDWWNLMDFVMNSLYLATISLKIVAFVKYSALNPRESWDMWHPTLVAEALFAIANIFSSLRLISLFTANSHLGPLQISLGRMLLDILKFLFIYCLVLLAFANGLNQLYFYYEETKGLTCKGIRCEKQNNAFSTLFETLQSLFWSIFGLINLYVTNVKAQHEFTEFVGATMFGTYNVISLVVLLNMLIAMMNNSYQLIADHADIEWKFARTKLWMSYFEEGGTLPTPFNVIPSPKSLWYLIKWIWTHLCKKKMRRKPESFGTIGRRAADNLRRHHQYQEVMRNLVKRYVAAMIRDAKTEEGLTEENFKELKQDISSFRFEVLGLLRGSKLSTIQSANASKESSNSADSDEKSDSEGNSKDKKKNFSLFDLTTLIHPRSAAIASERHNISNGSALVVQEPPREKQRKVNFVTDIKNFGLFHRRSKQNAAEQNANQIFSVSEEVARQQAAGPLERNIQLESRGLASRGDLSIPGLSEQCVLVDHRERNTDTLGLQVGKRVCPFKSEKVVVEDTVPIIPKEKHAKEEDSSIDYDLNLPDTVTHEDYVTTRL

[4] = molecular target: T2, Short transient receptor potential channel 6 (Homo sapiens, UniProt Q9Y210); assay: Inhibition of TRPC6 (unknown origin)
T2 sequence (Q9Y210 whole entry): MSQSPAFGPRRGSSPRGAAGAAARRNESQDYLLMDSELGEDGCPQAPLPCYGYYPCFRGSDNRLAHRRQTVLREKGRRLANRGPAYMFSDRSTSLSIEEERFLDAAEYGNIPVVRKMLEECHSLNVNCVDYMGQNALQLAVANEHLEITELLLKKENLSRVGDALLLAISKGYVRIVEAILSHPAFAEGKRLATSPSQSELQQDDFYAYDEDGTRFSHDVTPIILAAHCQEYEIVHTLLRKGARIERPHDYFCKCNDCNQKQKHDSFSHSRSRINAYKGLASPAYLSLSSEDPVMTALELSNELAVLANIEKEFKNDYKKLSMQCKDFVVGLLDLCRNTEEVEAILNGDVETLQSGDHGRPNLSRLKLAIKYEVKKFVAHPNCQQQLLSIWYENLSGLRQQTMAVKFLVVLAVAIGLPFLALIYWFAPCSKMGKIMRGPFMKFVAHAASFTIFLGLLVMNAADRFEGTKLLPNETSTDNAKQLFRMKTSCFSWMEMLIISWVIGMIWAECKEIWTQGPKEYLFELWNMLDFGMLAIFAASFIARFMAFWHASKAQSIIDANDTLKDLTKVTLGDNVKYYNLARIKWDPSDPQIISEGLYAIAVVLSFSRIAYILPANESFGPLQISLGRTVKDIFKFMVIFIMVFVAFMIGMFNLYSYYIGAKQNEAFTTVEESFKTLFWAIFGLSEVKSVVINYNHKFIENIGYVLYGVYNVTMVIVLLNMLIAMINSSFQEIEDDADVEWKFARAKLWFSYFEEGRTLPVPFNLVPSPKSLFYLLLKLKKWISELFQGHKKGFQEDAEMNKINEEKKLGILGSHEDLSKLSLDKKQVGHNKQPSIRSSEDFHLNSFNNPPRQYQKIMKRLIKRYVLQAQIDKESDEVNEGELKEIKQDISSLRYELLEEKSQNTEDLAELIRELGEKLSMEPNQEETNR

[5] = molecular target: Transient receptor potential cation channel subfamily V member 4 (Homo sapiens, UniProt Q9HBA0); assay: Antagonist activity at human TRPV4 expressed in BHK/AC9 or HEK MSR2 cells assessed as inhibition of GSK634775-induced Ca2+ flux pre-incubated for 10 mins before agonist addition by FLIPR assay
Transient receptor potential cation channel subfamily V member 4, sequence (Q9HBA0 whole entry): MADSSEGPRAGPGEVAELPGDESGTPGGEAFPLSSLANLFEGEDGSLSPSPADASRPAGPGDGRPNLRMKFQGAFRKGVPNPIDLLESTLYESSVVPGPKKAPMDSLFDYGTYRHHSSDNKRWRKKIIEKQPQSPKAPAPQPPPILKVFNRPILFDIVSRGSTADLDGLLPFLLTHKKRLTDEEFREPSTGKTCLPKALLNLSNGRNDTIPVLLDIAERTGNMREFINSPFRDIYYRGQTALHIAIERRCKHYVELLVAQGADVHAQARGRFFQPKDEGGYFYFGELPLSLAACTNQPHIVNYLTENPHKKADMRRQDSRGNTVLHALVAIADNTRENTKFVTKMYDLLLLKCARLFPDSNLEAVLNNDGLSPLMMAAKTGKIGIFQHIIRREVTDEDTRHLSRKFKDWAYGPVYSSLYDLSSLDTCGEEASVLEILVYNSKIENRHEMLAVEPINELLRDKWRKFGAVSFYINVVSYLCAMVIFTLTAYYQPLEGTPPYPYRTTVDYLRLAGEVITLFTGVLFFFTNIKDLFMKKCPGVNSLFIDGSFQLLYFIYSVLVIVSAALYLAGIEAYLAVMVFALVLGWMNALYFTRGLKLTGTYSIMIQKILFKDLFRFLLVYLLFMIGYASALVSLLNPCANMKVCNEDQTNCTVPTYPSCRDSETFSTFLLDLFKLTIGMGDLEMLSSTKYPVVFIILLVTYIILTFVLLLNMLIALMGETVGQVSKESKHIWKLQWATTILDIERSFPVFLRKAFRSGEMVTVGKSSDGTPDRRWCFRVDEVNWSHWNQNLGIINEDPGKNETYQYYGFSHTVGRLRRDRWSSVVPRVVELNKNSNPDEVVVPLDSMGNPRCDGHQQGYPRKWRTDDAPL

N#Cc1ccc(O[C@H]2CN(S(=O)(=O)c3ccc(Cl)cc3Cl)C[C@@]2(O)CO)cc1F
CL free (Rattus norvegicus): 966 mL/min/kg | IC50 [1]: > 10 µM | IC50 [2]: > 10 µM | IC50 [3]: > 10 µM | IC50 [4]: > 10 µM | IC50 [5]: 0.0025 µM
